# Laboratory results taken from ChEMBL document CHEMBL3352607, “Exploiting the anti-HIV 6-desfluoroquinolones to design multiple ligands” (Bioorg Med Chem, 2014).
# Activity calls are given as the source filed them. The rule behind the calls is not given here.
# Assays:
# [1] = molecular target: T1, Human immunodeficiency virus type 1 reverse transcriptase (Human immunodeficiency virus 1, UniProt Q72547); assay: Inhibition of HIV1 recombinant wild type reverse transcriptase p66/p51 using dsDNA by microplate reader based assay
# [2] = system: Human immunodeficiency virus 1; assay: Antiviral activity against HIV1 3B acutely infected in human MT4 cells assessed as inhibition of virus-induced cytopathogenic effect after 5 days by MTT assay; format: functional, organism-based; conditions: Human immunodeficiency virus 1, 3B, MT4, 120 h
# [3] = system: Human immunodeficiency virus 2; assay: Antiviral activity against HIV2 ROD acutely infected in human MT4 cells assessed as inhibition of virus-induced cytopathogenic effect after 5 days by MTT assay; format: functional, organism-based; conditions: Human immunodeficiency virus 2, ISOLATE ROD, MT4, 120 h
# [4] = Cytotoxicity against mock-infected human MT4 cells after 5 days by MTT assay; format: cell-based
# [5] = molecular target: T2, Protein Tat (Human immunodeficiency virus type 1 group M subtype B (isolate HXB2)(HIV-1)) (UniProt P04608); assay: Inhibition of HIV1 Tat-mediated transactivation of HIV1 long terminal repeat in human HeLa cells after 24 hrs by LTR driven luciferase reporter assay; format: cell-based; conditions: Human immunodeficiency virus 1
# T2 sequence (whole entry): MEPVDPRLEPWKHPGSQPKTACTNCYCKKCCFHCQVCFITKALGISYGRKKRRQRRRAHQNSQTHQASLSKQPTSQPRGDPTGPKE
# HeLa = assay: Cytotoxicity against human HeLa cells at 10 uM to 200 uM after 24 hrs; format: cell-based
# [6] = Selectivity index, ratio of CC50 for human OM10.1 cells to IC50 for HIV1 latently infected in human OM10.1 cells; format: functional
# [7] = system: Human immunodeficiency virus 1; assay: Antiviral activity against HIV1 latently infected in PMA-stimulated human OM10.1 cells assessed as reduction in p24 antigen levels pre-incubated for 2 hrs with host cells followed by 2 day incubation; format: functional, organism-based
# [8] = Cytotoxicity against human OM10.1 cells by MTT assay; format: cell-based
# [9] = molecular target: T1, Human immunodeficiency virus type 1 reverse transcriptase; assay: Inhibition of HIV reverse transcriptase
Compound,IC50 [1] [µM],EC50 [2] [µM],EC50 [3] [µM],CC50 at 120 h [4] [µM],inhibition [5],Activity (HeLa),Ratio CC50/IC50 [6],EC50 [7] [µM],CC50 [8] [µM],IC50 [9] [µM]
CCN1c2ncccc2NC(=O)c2cc(NCCNc3cc4c(cc3N)c(=O)c(C(=O)O)cn4C)cnc21,73.4,> 200,> 200,> 200,inactive,–,–,–,–,–
CCN1c2ncccc2NC(=O)c2cc(N3CCN(c4cc5c(cc4N)c(=O)c(C(=O)O)cn5C)CC3)cnc21,14.8,> 25.7,> 25.7,25.7,inactive,–,–,–,–,–
CCN1c2ncccc2NC(=O)c2ccc(N3CCN(c4cc5c(cc4N)c(=O)c(C(=O)O)cn5C)CC3)nc21,8.4,> 23.5,> 23.5,23.5,Dose-dependent effect,Non-toxic,4,5.11,18.4,–
Cc1ccnc2c1NC(=O)c1cccnc1N2C1CC1 [NEVIRAPINE],–,–,> 15,> 15,–,–,–,–,–,–
CCN1c2ncc(CCOc3cc[n+]([O-])c4ccccc34)cc2C(=O)N(C)c2cccnc21 [BILR 355],–,–,–,–,–,–,–,–,–,0.017
Cn1cc(C(=O)O)c(=O)c2cc(N)c(N3CCN(c4ccccn4)CC3)cc21,800,0.15,0.25,–,–,–,–,0.076,31.2,–
